Here are results for 4 compounds from US6703421B1, “Methods of using phenylmethylbenzoquinone and hydroquinone compounds for treatment of myocarditis, dilated cardiomyopathy and heart failure” (Daiichi Suntory Pharma Co., Ltd., priority 1999, dated 2004).

The structures appear in SMILES notation. Where two headings read alike, the source gives them in different places.

Test [1] concerns rat adjuvant arthritis. As to conditions: Pierce J W, et al. (1997) J. Biol. Chem. 272, 21096-21103; cited from earlier work.
Test [2] concerns EMC virus-inoculated DBA/2 mice (viral myocarditis). The test is described as follows: Survival rate in murine viral myocarditis model. It is filed as in vivo, mouse. How it is done:
Viral myocarditis mice were prepared using the procedure described below in accordance with a known method (Shioi T. et al. (1997) J. Mol. Cell. Cardiol., 29, 2327-2334). Variant M (acquired from the American Type Culture Collection) was used for the EMC virus for inoculation and prepared to 100 pfu/ml in Eagle's MEM medium (Nissui Pharmaceutical). Four-week-old DBA/2 male mice were divided into two groups, and intraperitoneally inoculated with EMC virus at 10 pfu/animal. Test compound was then administered intraperitoneally and daily for 14 days under the following conditions to each group starting 3 hours after inoculation.
The test compound was used after dissolving in 0.5% aqueous gum arabic solution (3 mg/ml). In the present example, the compound of Production Example 4 was used in the test as the NF-κB inhibitor.
Test group (n=10): Administration of NF-κB inhibitor (Production Example 4) at 30 mg/kg body weight Control group (n=10): 0.5% aqueous gum arabic solution
The experiment was conducted in the following three groups using the same method as Example 2 and the compound of Production Example 7 for the NF-κB inhibitor. The test compound was used after dissolving in 10% aqueous dimethylsulfoxide solution (DMSO) (test group 1: 0.3 mg/ml, test group 2: 3 mg/ml). The survival rates were tested for the presence of a significant difference according to the Kaplan-Meier method, and statistical significance was defined as p<0.05.
Test group 1 (n=21): Administration of NF-κB inhibitor (Production Example 7) at 3 mg/kg body weight
Test group 2 (n=21): Administration of NF-κB inhibitor (Production Example 7) at 30 mg/kg body weight
Four-week-old DBA/2 male mice were inoculated with EMC virus using the same method as Example 2, and the test compound was administered orally and daily for 14 days under the following conditions to each group starting 2 hours after inoculation.
The test compound was used after dissolving in 10% aqueous sulfobutylcyclodextrin solution (3 mg/ml). In the present example, the compound of Production Example 44 was used in the test as the NF-κB inhibitor.
Test group (n=20): Administration of NF-κB inhibitor (Production Example 44) at 30 mg/kg body weight

Test [3] deals with NF-κB. The test is described as follows: NF-κB luciferase reporter assay in A549/NF-κBLuc cells. It is filed as cell-based, human. The following applies: for IC50: Homo sapiens, A549/NF-κBLuc, luciferase activity. The method, then:
Using lipofectamine (Lifetech Oriental K. K., Tokyo) according to the conventional method, human lung cancer cell line A549 cells (ATCC catalog no. CCL185), which are known to express hiNOS by cytokine stimulation, were co-transfected with pNFκB-Luc, which are plasmid controlled by a NF-κB binding consensus sequence, and pSV2neo (Clontech, U.S.A.), and then A549/NF-κBLuc, the cell that has stably introduced pNFκB-Luc, was selected by adding G418 sulfate (1 mg/ml, Lifetech Oriental K. K.) to the culture medium.
The luciferase activity was measured using the Luciferase Assay System (Promega, U.S.A.).

Test [4] has as its system TNF-α. The test is described as follows: TNF-α mRNA level in heart by TaqMan PCR, murine myocarditis model. Type of test: in vivo, mouse. As to conditions: 30 mg/kg intraperitoneally daily for 5 days, heart day 5, corrected with GAPDH, vs infected control; FIG. 6. The method, then:
(§1) Four-week-old DBA/2 male mice were inoculated with EMC virus in the same manner as Example 3 followed by intraperitoneal administration of the compound of Production Example 7 dissolved in 10% DMSO or 10% DMSO only daily for 5 days starting 2 hours after inoculation. The whole hearts were excised from mice of the Production Example 7 compound group, 10% DMSO group and non-infected group on day 5 of viral infection, and after extracting RNA using ISOGEN (Wako Pure Chemical Industries), cDNA was obtained in accordance with the procedure of the SuperScript Preamplification System (Lifetech Oriental). The mRNA levels of TNF-α, IL-1β and iNOS were assayed by TaqMan PCR using this cDNA as templates. Detection was performed using the PRISM7700 (PE Biosystems Japan) in accordance with the protocol of the PCR assay system (PE Biosystems Japan). The following primers and TaqMan probes were used for detection.
(§2) The amount of RNA of each sample was corrected with the amount of glyceraldehyde-3-phosphate dehydrogenase (GAPDH) gene.
(§3) Infected group (administered compound of Production Example 7) (n=10) Administration of NF-κB inhibitor (Production Example 7) at 30 mg/kg body weight

Test [5] concerns EMC virus-inoculated DBA/2 mice (viral myocarditis). The test is described as follows: Histopathology of heart (cardiac necrosis, cellular infiltration) in murine myocarditis model. Type of test: in vivo, mouse. The following applies: 30 mg/kg, hearts on days 7 and 8, score 0-4, vs control group; FIG. 5. The method, then:
NF-κB inhibitor (compound of Production Example 7) was administered at 30 mg/kg body weight using the similar method as Example 3 to the mouse myocarditis model prepared in the similar manner as Example 2. The whole hearts of those mice alive on days 7 and 8 (n=10) were extripated, exsanguinated and washed with phosphate-buffered saline. Subsequently, paraffin embedded and sectioned specimens were prepared by fixing the tissue with 10% formalin. The specimens were stained with hematoxylin-eosin stain followed by examination of histopathological findings.
In cross-sectional images taken along the minor axis of the left ventricle under light microscopy, the percentage of cardiac necrosis features or cellular infiltration was classified into 0 (no damage), 1 (less than 25%), 2 (25% to less than 50%), 3 (50% to less than 75%) and 4 (75% or more), and respectively observed by two observers. The evaluations of the two observers were averaged to obtain a single evaluation. The results obtained were tested for the presence of a significant difference by analysis of variance (ANOVA) according to Bonferroni's multiple comparison method, and statistical significance was defined as p<0.05.
Test group (n=10): Administration of NF-κB inhibitor (Production Example 7) at 30 mg/kg body weight

For test [6], the system named is iNOS. The test is described as follows: iNOS mRNA level in heart by TaqMan PCR, murine myocarditis model. As to conditions: 30 mg/kg intraperitoneally daily for 5 days, heart day 5, corrected with GAPDH, vs infected control; FIG. 6. It is filed as in vivo, mouse. How it is done:
as §1, §2, §3

For test [7], the system named is IL-1β. The test is described as follows: IL-1β mRNA level in heart by TaqMan PCR, murine myocarditis model. It is filed as in vivo, mouse. As to conditions: 30 mg/kg intraperitoneally daily for 5 days, heart day 5, corrected with GAPDH, vs infected control; FIG. 6. How it is done: as §1, §2, §3
Where [8] appears, read: IL-1β (1 ng/ml) for 4 hours, read-out: IC50 (μM) IL-1 stimulation.
The mark [9] stands for this setting: TNF-α (500 ng/ml) for 4 hours, read-out: IC50 (μM) TNF stimulation.

As to `CC(C)(C)c1ccc(S(=O)(=O)/C=C/C#N)cc1` [BAY11-7083], the “effect in rat adjuvant arthritis” value in test [1] is listed as “exhibit an effect”.

Consider `COC1=C(OC)C(=O)C(Cc2ccc(CCC(=O)N3CCSCC3)cc2)=C(C)C1=O` [Prod. Ex. 4, N-[3-[4-(5,6-Dimethoxy-3-methyl-1,4-benzoquinon-2-ylmethyl)phenyl]propionyl]thimorpholine], for which, in test [2] (30 mg/kg intraperitoneally daily for 14 days, 0.5% gum arabic, FIG. 2), the survival rate result is reported as “improves the survival rate”. Moreover, in test [3] (A549/NF-κBLuc stimulated with IL-1β (1 ng/ml) or TNF-α (500 ng/ml) for 4 hours, dose-dependent, FIG. 1), the “luciferase activity regulated by activation of NF-κB” value was “suppresses luciferase activity”. The IC50 in test [3] (setting [8]) and in test [3] (setting [9]) was 10 µM each time.

On to `COC1=C(OC)C(=O)C(Cc2ccc(CCC(=O)N3CCCCC3)cc2)=C(C)C1=O` [Prod. Ex. 7], for which, in test [4], the “expression of TNF-α at the mRNA level” value is recorded as “significantly inhibited”. In addition, the survival rate entry in test [2] (3 mg/kg intraperitoneally daily for 14 days, 10% DMSO, Kaplan-Meier p<0.05, FIG. 3) is “significantly improve survival rate”; in test [2] (30 mg/kg intraperitoneally daily for 14 days, 10% DMSO, Kaplan-Meier p<0.05, FIG. 3), “significantly improve survival rate”. The figures for the IC50 in test [3] (setting [8]) and in test [3] (setting [9]) were 4 µM and 10 µM, respectively. Besides, in test [5], the cardiac necrosis entry is “significantly inhibited”. For the same compound, the cellular infiltration result in test [5] is given as “significantly inhibited”. For the same compound, the “expression of iNOS at the mRNA level” value in test [6] is “significantly inhibited”. In addition, the “expression of IL-1β at the mRNA level” value in test [7] is “significantly inhibited”.

Take `COC1=C(OC)C(=O)C(Cc2cccc(C(=O)N3CCOCC3)c2)=C(C)C1=O` [Prod. Ex. 44, N-[3-(5,6-Dimothoxy-3-methyl-1,4-benzoquinon-2-ylmethyl)benzoyl]morpholine]: in test [2] (30 mg/kg orally daily for 14 days, 10% sulfobutylcyclodextrin, FIG. 4), the survival rate result was “improves survival rate”. Besides, the IC50 in test [3] (setting [8]) is 39 µM.
